Patent US5756505A, “N-acylpiperazine derivative, antibacterial drug and anti-ulcer drug” (Shiseido Co., Ltd., priority 1995, dated 1998)
Converted amounts (≈) assume the structure as drawn.

Assays:
stress ulcer formation = experiment: WIS: Restraint and Water Immersion Stress-Induced Ulcer Inhibition Test; assay type: in vivo, rat (male Crj:SD or Slc:SD); conditions: rat, 100 mg/kg oral, 7 hours stress
Protocol: WIS: Restraint and Water Immersion Stress-Induced Ulcer Inhibition Test
The degree of inhibition of the stress ulcer formation is tested.
Male Crj:SDor Slc:SD rats (6 to 7-week-old) were fasted overnight, but allowed free access to water. Each group has 5 to 8 of these rats. The sample compound was dissolved or suspended in an aqueous solution of 0.3% sodium carboxymethylcellulose or 0.05% Tween 80 and then was orally administered (100 mg/10 ml/kg). To a control group, the vehicle was administered. 10 minuts later, the rats were placed in a stress cage and immersed to the level of xipfoid process in a water bath (21° C.) for 7 hours. At the end of the stress, the rats were sacrificed by inhalation of ether or carbon dioxide. Then, the stomach of each was removed, inflated by injecting 10 ml of 5% formalin neutral buffer solution, and immersed in 1% formalin neutral buffer solution for 30 minutes or more to be fixed. The stomach was incised along the greater curvature and then the length of each erosion in the glandular portion was determined under dissecting microscope. The sum of the length of erosions per stomach was defined as ulcer index (UI).
The effect obtained when 100 mg/kg of the sample compound had been administered was expressed as ulcer formation inhibitory rate (%) as follows:
ulcer formation inhibitory rate (%)=[1-(UI in sample group/UI in control group)]×100

Helicobacter pyroli = experiment: AHP: Antibacterial Activity Test Against Helicobacter pyroli; assay type: cell-based, Helicobacter pyroli NCTC 11637; conditions: Helicobacter, NCTC11637, 168 h; H. pyroli NCTC 11637, agar dilution, 7 days; read-out: AHP: minimum inhibitory concentration (MIC)
Protocol: AHP: Antibacterial […] Against Helicobacter pyroli i)Meaning The minimum inhibitory concentration (MIC) against Helicobacter pyroli (microaerophilic gram-negative bacterium which is supposed to deeply involve in pathogenesis, relapse, and recrudescence of ulcer, referred to as "HP" in the following) is measured so as to find out compounds which have antimicrobial activity against Helicobacter pyroli. ii)Method MICs were determined by the agar dilution method. […] Grown colonies were transfered to the same plate and cultured for 3 days under the same condition. […] A 1,000 μg/ml solution of the sample compound containing DMSO not more than 25% was […] diluted 2-fold in sterile purified water. 100 μl volume from each dilution was mixed thoroughly with 900 μl of brucella agar supplemented with 5% horse blood and solidified in a 24 well micro plate. 10 μl of the bacterial suspension (about 10^3 cfu) was inoculated on this plate and cultured for 7 days under the same condition as that of preculture.

[1] = MTT: Cell Damaging and Protecting Effect Test; assay type: cell-based, rabbit (male Japanese White); conditions: rabbit, gastric mucosal cells, final concentration 10^-4 M, 4 hours; smaller value is better; read-out: MTT: cell damaging rate
Source text: MTT: Cell Damaging and Protecting Effect Test
It is confirmed that there is no toxicity in cell level. Those having a toxicity in cell level are inappropriate as an anti-ulcer drug.
A male Japanese White rabbit (2.5 to 3 kg) was anesthetized to death by Nembutal™ and, immediately thereafter, its stomach was removed. The greater curvature of the stomach was incised so as to remove the stomach contents therefrom. After the mucosal surface was washed with HBSS (Hanks' Balanced Salt Solution), the stomach in ice-cooled HBSS was transferred to a laboratory. Then, after the pyloric antrum was removed, the gastric corpus mucosa was separated by a spatula and then minced into 2 to 3 mm^3 pieces in BME (Basal Medium Eagle). Thereafter, these pieces were shaken at 120 to 130 cycles/minute for 15 minutes at 37° C. in BME 60ml containig 280 U/ml of dispase and 30 to 50 U/ml of collagenase. Here, the concentration of collagenase was appropriately changed for each lot in view of the state of cells. The pieces were washed twice with EBSS (Earle's Balanced Salt Solution) containing 1 mM of EDTA and then shaken in MEM (Minimum Essential Medium) containing 1 mM of EDTA at 37° C. for 5 minutes. Subsequently, they were shaken in the dispase and collagenase having the same concentrations as those mentioned above for 15 minutes so as to remove the supernatant and then further shaken at 37° C. for 50 to 60 minutes at 120 to 130 cycles/minute. Then, after being washed twice with HBSS, Ham F12 containing 2% of Ultrocer G™ was used to attain the concentration of 1×10^6 cells/ml. Thus formed suspension was dispensed in each well of a 96-well plate by 200 μl. The plate was incubated in the atmosphere composed of 5% CO2 and 95% air at 37° C. for three days so as to attain a confluent state and then subjected to MTT assay.
The sample compound was dissolved in DMSO so as to attain a concentration of 10^-2 M and then diluted with HBSS containing 2% of Ultrocer G™ so as to attain a final concentration of 10^-4 M. To each group, which 8 wells were used for, 10 μl of MTT reagent were added immediately after 100 μl of the medium in each well were exchanged for same volume of the resulting solution of the sample compound. After being incubated in an atmosphere composed of 5% CO2 and 95% air at 37° C. for 4 hours, thus formed solution was centrifuged and then its supernatant was discarded. Subsequently, 100 μl of 100% ethanol were added to the residue so as to dissolve MTT formazan. Then, the absorbance (OD: 570 to 630) was measured by a microplate reader. This method utilizes a phenomenon in which MTT is changed to MTT formazan only by mitochondria of living cells so as to change color.
The cell damaging or cell protecting effect of the sample compound at the final concentration of 10^-4 M was expressed as cell damaging rate (%) as follows:
cell damaging rate (%)=[1-(absorbance in sample group/absorbance in control group)]×100
Accordingly, the smaller value is better in the cell damaging rate.

Structure (SMILES)	WIS: ulcer formation inhibitory rate (stress ulcer formation) [%]	MIC (Helicobacter pyroli) [µg/mL]	cytotoxicity at 4 h, 100 µM [1] [%]
CC(C)Cc1cc(C(=O)N2CCN(CC(C)C)CC2)ccc1OCc1ccc(Cl)cc1 [Example 17, 1-[4-(4-chlorobenzyloxy)-3-isobutylbenzoyl]-4-isobutylpiperazine]	66	12.5 (≈ 28.2 µM)	-18
CC(C)Cc1cc(C(=O)N2CCN(CC(C)C)CC2)ccc1OCc1ccc(F)c(F)c1.Cl [Example 23, 1-[4-(3,4-difluorobenzyloxy)-3-isobutylbenzoyl]-4-isobutylpiperazine hydrochloride]	83	25	28
